Experimental data as given in ChEMBL document CHEMBL1135561, “Development of a phosphatase-stable phosphotyrosyl mimetic suitably protected for the synthesis of high-affinity Grb2 SH2 domain-binding ligands” (Bioorg Med Chem Lett, 2002).
pIC50: −log10 of the molar value.

How the values were obtained:
MDA-MB-453 = test: Inhibition of MDA-MB-453 cell proliferation; format: functional, cell-based; settings: Homo sapiens
[1] = molecular target: T1, Growth factor receptor-bound protein 2 (Homo sapiens, UniProt P62993); test: Binding affinity for Growth factor receptor bound protein 2 SH2 domain
[2] = molecular target: T1, Growth factor receptor-bound protein 2; test: Inhibition of Growth factor receptor bound protein 2 SH2 domain binding to p185erbB-2 receptor

pIC50 (MDA-MB-453) | pIC50 [1] | pIC50 [2] | SMILES
< 4.30 | 5.30 | < 4.52 | [N-]=[N+]=N[C@@H](Cc1ccc(CP(=O)(O)O)cc1)C(=O)NC1(C(=O)N[C@@H](CC(N)=O)C(=O)NCCCc2cccc3ccccc23)CCCCC1
5.30 | 8.05 | 5.52 | NC(=O)C[C@H](NC(=O)C1(NC(=O)[C@H](Cc2ccc(CP(=O)(O)O)cc2)NC(=O)C(=O)O)CCCCC1)C(=O)NCCCc1cccc2ccccc12
5.10 | 8.10 | 5.00 | NC(=O)C[C@H](NC(=O)C1(NC(=O)[C@@H](CC(=O)O)Cc2ccc(CP(=O)(O)O)cc2)CCCCC1)C(=O)NCCCc1cccc2ccccc12
